From US9969726B2, “Metabotropic glutamate receptor negative allosteric modulators (NAMS) and uses thereof” (Sanford-Burnham Medical Research Institute, priority 2014, dated 2018)
Read-outs that look alike come from different tables or passages of the source.

Key:
[1] = target: rat mGlu2 receptor (Rattus norvegicus (Rat), UniProt P31421); test: mGlu2 in vitro GIRK thallium flux assay; assay type: cell-based; settings: NAM, EC80 glutamate, HEK-293 GIRK cells
Summary of the method: (§1)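 Cells expressing rat mGlu2 or mGlu3 with GIRK, plated overnight at 37 °C. Test compounds (0.3% DMSO, 10-point 1:3 series) preincubated 2.5 or 60 min, then thallium buffer plus EC80 glutamate added. Fluorescence slope 5–15 s after addition, normalised to vehicle and maximal agonist, fitted by four-parameter logistic.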

[2] = Microsomal stability in vitro assay; assay type: in vitro ADME; settings: rat liver microsomes 1 mg/mL, 4 μM compound, 2 mM NADPH
Experimental: Pooled rat liver microsomes (BD Biosciences, #452701) were preincubated with test compounds at 37.5° C. for 5 min in the absence of NADPH. The reaction was initiated by addition of NADPH and incubated under the same conditions. The final incubation concentrations were 4 μM test compound, 2 mM NADPH, and 1 mg/mL (total protein) liver microsomes in phosphate-buffered saline (PBS) at pH 7.4. One aliquot (100 μL) of the incubation mixture was withdrawn at 15 min time points and combined immediately with 100 μL of ACN/MeOH. After mixing, the sample was centrifuged at approximately 13000 rpm for 12 min. The supernatant was filtered and transferred into an autosampler vial and the amount of test compound was quantified using a Shimadzu LCMS 2010EV mass spectrometer. The change of the AUC (area under the curve) of the parent compound as a function of time was used as a measure of microsomal stability. Test compounds were run in duplicate with a positive control.

[3] = PK: brain and plasma levels collected after the FST; assay type: in vivo, rat; settings: Wistar
Experimental: After the habituation swim and 24 hours prior to the test swim, rats were administered one of three doses of a mGlu2/3 NAM, with doses and pretreatment time based on maximal brain penetration as determined by PK studies for each compound. Blood and brain tissue were collected immediately after the FST and the PK properties of each compound were analyzed together with FST behavior. The modified forced swim test was carried out as described previously in Cryan et al., 2003. Briefly, rats were taken from the vivarium and immediately placed individually for 15 min in Pyrex cylinders (21×46 cm; Fisher Scientific, Tustin, Calif.), which were filled with water to a depth of 30 cm. The testing room was bright, and two bright (60-watt) lamps provided extra illumination above the cylinders. The rats were removed 15 min later, dried, and placed in their home cage. Twenty-four hours after their first exposure, the animals were again placed in the swim apparatus for 5 min, and behaviors were monitored from above by video camera for subsequent analysis. The rater of the behavioral patterns was blind with respect to the experimental conditions being scored. A time sampling technique was employed whereby the predominant behavior in each 5-sec period of the 300-sec test was recorded. Climbing behavior consisted of upward-directed movements of the forepaws along the side of the swim chamber. Swimming behavior was defined as movement (usually horizontal) throughout the swim chamber, which also included crossing into another quadrant. Immobility was assigned when no additional activity was observed other than that required to keep the rat's head above water.

[4] = Plasma stability in vitro assay; assay type: in vitro ADME; settings: rat plasma, 100 μM, 37.5° C.
Experimental: A 20 μL aliquot of a 10 mM solution in DMSO of the test compound was added to 2.0 mL of heparinized rat plasma (Lampire, P1-150N) to obtain a 100 μM final solution. The mixture was incubated for 1 h at 37.5° C. Aliquots of 100 μL were taken at 15 min intervals and diluted with 100 μL of MeOH/ACN. After mixing, the sample was centrifuged at approximately 13000 rpm for 12 min. The supernatant was filtered and transferred into an autosampler vial and the amount of test compound was quantified using the Shimadzu LCMS-2010EV system. The change of the AUC of the parent compound in function of time was used as a measure of plasma stability.

[5] = target: rat mGlu3 receptor (Rattus norvegicus (Rat), UniProt P31422); test: mGlu3 in vitro GIRK thallium flux assay; assay type: cell-based; settings: NAM; 2.5 min compound incubation; EC80 glutamate; HEK-293 GIRK cells
Chain of rat mGlu3 receptor (P31422 23-879): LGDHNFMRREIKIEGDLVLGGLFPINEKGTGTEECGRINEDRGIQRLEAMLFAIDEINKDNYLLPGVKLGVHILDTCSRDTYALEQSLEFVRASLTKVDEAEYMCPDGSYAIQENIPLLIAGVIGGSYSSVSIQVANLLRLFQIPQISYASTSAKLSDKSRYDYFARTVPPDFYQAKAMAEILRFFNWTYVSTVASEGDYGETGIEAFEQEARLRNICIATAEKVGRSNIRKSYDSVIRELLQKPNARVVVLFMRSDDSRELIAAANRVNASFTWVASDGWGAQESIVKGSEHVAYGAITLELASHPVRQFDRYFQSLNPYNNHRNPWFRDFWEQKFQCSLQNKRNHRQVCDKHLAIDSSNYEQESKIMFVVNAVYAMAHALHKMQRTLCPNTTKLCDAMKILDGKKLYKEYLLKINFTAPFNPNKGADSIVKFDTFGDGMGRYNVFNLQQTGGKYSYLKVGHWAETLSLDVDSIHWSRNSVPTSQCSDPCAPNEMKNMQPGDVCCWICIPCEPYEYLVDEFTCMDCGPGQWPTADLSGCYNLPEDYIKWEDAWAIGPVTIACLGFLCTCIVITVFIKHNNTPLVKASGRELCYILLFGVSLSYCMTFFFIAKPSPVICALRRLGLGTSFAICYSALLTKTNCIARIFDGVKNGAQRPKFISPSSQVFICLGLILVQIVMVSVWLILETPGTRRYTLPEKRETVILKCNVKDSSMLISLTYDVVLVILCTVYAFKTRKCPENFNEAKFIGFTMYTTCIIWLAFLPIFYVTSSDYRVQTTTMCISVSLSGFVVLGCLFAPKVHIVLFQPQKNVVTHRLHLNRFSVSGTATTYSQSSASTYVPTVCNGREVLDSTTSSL
Summary of the method: as §1

[6] = tested on: Male Wistar rats; test: Forced Swim Test (FST); assay type: in vivo; settings: rat; immobility and swimming; FIG. 1
Experimental: Male Wistar rats (Charles River, Hollister, Calif.), weighing 175-225 g (Charles River, Portage, Ind.) used for the forced swim test study were housed in pairs with food and water available ad libitum, except during testing, in a temperature and humidity controlled vivarium (21° C.). Rats were maintained on a 12-hour reverse light-dark cycle with lights on at 6 pm. All experimental procedures occurred during the dark cycle, were approved by the Institutional Animal Care and Use Committee of the Scripps Research Institute, and were in accordance with the Association for the Assessment and Accreditation of Laboratory Animal Care (AAALAC) guidelines. […]
After the habituation swim and 24 hours prior to the test swim, rats were administered one of three doses of a mGlu2/3 NAM, with doses and pretreatment time based on maximal brain penetration as determined by PK studies for each compound. Blood and brain tissue were collected immediately after the FST and the PK properties of each compound were analyzed together with FST behavior. […] Twenty-four hours after their first exposure, the animals were again placed in the swim apparatus for 5 min, and behaviors were monitored from above by video camera for subsequent analysis. The rater of the behavioral patterns was blind with respect to the experimental conditions being scored. […]

[7] = 2.5 min compound incubation, read-out: mGlu2 EC50 (μM) (2.5 min)
[8] = mGlu2 EC50 (μM) (60 min), 60 min compound incubation
[9] = rat brain tissue, read-out: Brain
[10] = read-out: mGlu2 EC50 (μM) (60 min), 60 min compound incubation

Chain of rat mGlu2 receptor (P31421 19-872): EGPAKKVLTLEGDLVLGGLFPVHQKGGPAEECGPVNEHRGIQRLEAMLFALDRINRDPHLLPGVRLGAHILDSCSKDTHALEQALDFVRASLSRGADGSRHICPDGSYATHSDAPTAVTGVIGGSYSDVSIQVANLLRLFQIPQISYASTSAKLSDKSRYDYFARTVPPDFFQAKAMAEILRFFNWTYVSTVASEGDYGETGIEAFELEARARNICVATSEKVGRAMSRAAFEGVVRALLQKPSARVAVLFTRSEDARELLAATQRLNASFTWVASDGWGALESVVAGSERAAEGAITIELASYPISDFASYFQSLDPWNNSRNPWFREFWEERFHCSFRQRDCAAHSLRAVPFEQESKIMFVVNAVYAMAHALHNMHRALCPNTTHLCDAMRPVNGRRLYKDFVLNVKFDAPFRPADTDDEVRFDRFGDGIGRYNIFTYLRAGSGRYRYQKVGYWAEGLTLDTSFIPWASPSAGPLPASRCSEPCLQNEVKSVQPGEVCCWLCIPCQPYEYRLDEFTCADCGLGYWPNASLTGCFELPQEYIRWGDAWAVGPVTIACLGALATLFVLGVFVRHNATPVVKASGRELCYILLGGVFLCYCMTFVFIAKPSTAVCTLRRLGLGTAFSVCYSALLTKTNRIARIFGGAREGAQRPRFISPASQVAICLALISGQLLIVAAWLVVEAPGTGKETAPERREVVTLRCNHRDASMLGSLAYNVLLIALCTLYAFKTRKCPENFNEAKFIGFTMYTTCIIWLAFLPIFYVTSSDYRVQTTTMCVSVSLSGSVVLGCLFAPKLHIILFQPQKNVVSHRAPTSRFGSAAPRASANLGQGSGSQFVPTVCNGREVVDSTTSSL

EC50 [1, 8]	Compound	EC50 [1, 7]	Microsomal Stability, Percent Remaining @ 1 hour [2]	concentration at 24 h [3, 9]	concentration at 24 h ([3]; rat plasma, read-out: Plasma)	Plasma Stability, Percent Remaining @ 1 hour [4]	EC50 [5]	EC50 [1, 10]	antidepressant activity in the Forced Swim Test [6]
0.11 µM	O=C(O)c1cc(F)cc(-c2cccc(-c3nsc(-c4ccoc4)n3)c2)c1 [Example 43, 5-Fluoro-3′-(5-(furan-3-yl)-1,2,4-thiadiazol-3-yl)biphenyl-3-carboxylic Acid]	0.17 µM	66%	210 ± 40 nM	4690 ± 780 nM	95%	3.43 µM		
> 30 µM	O=C(O)c1cccc(-c2cccc(-c3cc(-c4ccccc4)on3)c2)c1 [Example 49, 3′-(5-Phenylisoxazol-3-yl)-[1,1′-biphenyl]-3-carboxylic Acid]	> 10 µM		500 ± 50 nM	19200 ± 2100 nM		> 10 µM		
	O=C(O)c1cc(-c2cccc(-c3nc(-c4ccc(C(F)(F)F)nc4)cc(C(F)(F)F)n3)c2)ccc1F [Example 73, 4-Fluoro-3′-(4-(trifluoromethyl)-6-(6-(trifluoromethyl)pyridin-3-yl)pyrimidin-2-yl)biphenyl-3-carboxylic Acid]	0.82 µM		140 ± 90 nM	9010 ± 2230 nM		1.18 µM	0.17 µM	
	O=C(O)c1cc(F)cc(-c2cccc(-c3nc(-c4ccc(C(F)(F)F)nc4)cc(C(F)(F)F)n3)c2)c1 [Example 76, 5-Fluoro-3′-(4-(trifluoromethyl)-6-(6-(trifluoromethyl)pyridin-3-yl)pyrimidin-2-yl)biphenyl-3-carboxylic Acid]	1.53 µM	95%			100%	1.61 µM	0.09 µM	
	O=C(O)c1ccc(F)c(-c2cccc(-c3nc(-c4ccc(C(F)(F)F)nc4)cc(C(F)(F)F)n3)c2)c1 [Example 79, 6-Fluoro-3′-(4-(trifluoromethyl)-6-(6-(trifluoromethyl)pyridin-3-yl)pyrimidin-2-yl)biphenyl-3-carboxylic Acid]	0.83 µM	82%			86%	0.89 µM	0.09 µM	
	O=C(O)c1cc(-c2cccc(-c3nc(-c4ccccc4)cc(C(F)(F)F)n3)c2)ccc1F [Example 86, 4-Fluoro-3′-(4-phenyl-6-(trifluoromethyl)pyrimidin-2-yl)biphenyl-3-carboxylic Acid]	0.8 µM	100%			100%	0.92 µM	0.04 µM	
	COc1ccc(-c2cc(C(F)(F)F)nc(-c3cccc(-c4ccc(F)c(C(=O)O)c4)c3)n2)cc1 [Example 87, 4-Fluoro-3′-(4-(4-methoxyphenyl)-6-(trifluoromethyl)pyrimidin-2-yl)biphenyl-3-carboxylic Acid]	1.07 µM	92%			97%	1 µM	0.06 µM	
	O=C(O)c1cc(F)cc(-c2cccc(-c3nc(-c4ccco4)cc(C(F)(F)F)n3)c2)c1 [Example 89, 5-Fluoro-3′-(4-(furan-2-yl)-6-(trifluoromethyl)pyrimidin-2-yl)biphenyl-3-carboxylic Acid]	1.24 µM	82%			100%	2.25 µM	0.14 µM	
	O=C(O)c1cc(-c2cccc(-c3nc(-c4ccoc4)cc(C(F)(F)F)n3)c2)ccc1F [Example 94, 4-Fluoro-3′-(4-(furan-3-yl)-6-(trifluoromethyl)pyrimidin-2-yl)biphenyl-3-carboxylic Acid]			490 ± 60 nM	15900 ± 950 nM		0.28 µM	0.14 µM	
	O=C(O)c1ccc(F)c(-c2cccc(-c3nc(-c4ccoc4)cc(C(F)(F)F)n3)c2)c1 [Example 114, 6-Fluoro-3′-(4-(furan-3-yl)-6-(trifluoromethyl)pyrimidin-2-yl)biphenyl-3-carboxylic Acid]	0.4 µM	66%			93%	1.36 µM		
	O=C(O)c1cc(-c2cccc(-c3nc(-c4ccsc4)cc(C(F)(F)F)n3)c2)ccc1F [Example 122, 4-Fluoro-3′-(4-(thiophen-3-yl)-6-(trifluoromethyl)pyrimidin-2-yl)-[1,1′-biphenyl]-3-carboxylic Acid]		83%			83%	0.53 µM	0.07 µM	
	Cc1cc2c(cc1C(F)(F)F)NC(=O)CC(c1cccc(Sc3ncccn3)c1)=N2 [Example 136, 7-Methyl-4-(3-(pyrimidin-2-ylthio)phenyl)-8-(trifluoromethyl)-1H-benzo[b][1,4]diazepin-2(3H)-one]	0.88 µM	90%			99%	0.81 µM	0.04 µM	
	Cc1cc2c(cc1C(F)(F)F)NC(=O)CC(c1cccc(S(=O)(=O)c3ncccn3)c1)=N2 [Example 137, 7-Methyl-4-(3-(pyrimidin-2-ylsulfonyl)phenyl)-8-(trifluoromethyl)-1H-benzo[b][1,4]diazepin-2(3H)-one]	0.45 µM	68%			66%	0.3 µM	0.06 µM	
	O=C1CC(c2cccc(-c3cccnc3)c2)=Nc2ccc(Br)cc2N1 [Example 179, 8-Bromo-4-(3-(pyridin-3-yl)phenyl)-1,3-dihydro-2H-benzo[b][1,4]diazepin-2-one]	2.74 µM	30%			100%	1.37 µM	0.02 µM	
	N#Cc1cc(C2=Nc3ccc(Br)cc3NC(=O)C2)ccn1 [Example 182, 4-(8-Bromo-2-oxo-2,3-dihydro-1H-benzo[b][1,4]diazepin-4-yl)picolinonitrile]	0.04 µM		280 ± 100 nM	160 ± 30 nM		0.04 µM	0.04 µM	decreasing immobility and increasing swimming
	N#Cc1cc(C2=Nc3ccc(C(F)(F)F)cc3NC(=O)C2)ccn1 [Example 184, 4-(2-Oxo-8-(trifluoromethyl)-2,3-dihydro-H-benzo[b][1,4]diazepin-4-yl)picolinonitrile]	0.49 µM	97%			100%	0.41 µM	0.07 µM	
